Results on 7 compounds are retold here after publication PMC6981637, “Tetrahydroquinoline-Isoxazole/Isoxazoline Hybrid Compounds as Potential Cholinesterases Inhibitors: Synthesis, Enzyme Inhibition Assays, and Molecular Modeling Studies” (International Journal of Molecular Sciences, 2019).

The target of one assay is T1, BChE (from bovine serum) (Bos taurus, UniProt P32749).
T1 construct: purchased Sigma-Aldrich
As to the kind of experiment: BChE inhibitory activity (Ellman method). It counts as biochemical. Conditions: average from three independent experiments ± SEM. (In Ellman's method for cholinesterases, released thiocholine reacts with DTNB.)

Assay [1] has as its target AChE (from Electrophorus electricus) (Electrophorus electricus, UniProt O42275).
Where [2] appears, read: Table 2, THQ–isoxazole hybrids 6, read-out: BChE (IC50).
Where [3] appears, read: Table 1, THQ–isoxazoline hybrids 5, read-out: IC50 BChE.

Where two headings read alike, the source gives them in different places.

AChE (from Electrophorus electricus), sequence (O42275 24-633): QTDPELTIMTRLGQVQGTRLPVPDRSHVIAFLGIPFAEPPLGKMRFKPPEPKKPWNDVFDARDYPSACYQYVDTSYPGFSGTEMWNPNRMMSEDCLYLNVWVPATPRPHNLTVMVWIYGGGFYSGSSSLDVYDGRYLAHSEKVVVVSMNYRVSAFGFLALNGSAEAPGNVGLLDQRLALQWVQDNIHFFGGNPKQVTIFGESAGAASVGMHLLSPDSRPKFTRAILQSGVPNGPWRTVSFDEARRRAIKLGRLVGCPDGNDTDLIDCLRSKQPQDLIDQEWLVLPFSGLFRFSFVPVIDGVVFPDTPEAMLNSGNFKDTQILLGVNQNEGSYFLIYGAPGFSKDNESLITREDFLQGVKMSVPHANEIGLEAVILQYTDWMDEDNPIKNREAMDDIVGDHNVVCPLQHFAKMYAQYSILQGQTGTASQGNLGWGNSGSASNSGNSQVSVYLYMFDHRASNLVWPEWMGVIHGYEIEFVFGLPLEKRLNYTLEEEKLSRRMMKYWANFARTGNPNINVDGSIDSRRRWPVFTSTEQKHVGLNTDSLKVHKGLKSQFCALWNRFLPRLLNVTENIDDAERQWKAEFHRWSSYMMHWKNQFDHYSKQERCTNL
T1 sequence (P32749 29-602): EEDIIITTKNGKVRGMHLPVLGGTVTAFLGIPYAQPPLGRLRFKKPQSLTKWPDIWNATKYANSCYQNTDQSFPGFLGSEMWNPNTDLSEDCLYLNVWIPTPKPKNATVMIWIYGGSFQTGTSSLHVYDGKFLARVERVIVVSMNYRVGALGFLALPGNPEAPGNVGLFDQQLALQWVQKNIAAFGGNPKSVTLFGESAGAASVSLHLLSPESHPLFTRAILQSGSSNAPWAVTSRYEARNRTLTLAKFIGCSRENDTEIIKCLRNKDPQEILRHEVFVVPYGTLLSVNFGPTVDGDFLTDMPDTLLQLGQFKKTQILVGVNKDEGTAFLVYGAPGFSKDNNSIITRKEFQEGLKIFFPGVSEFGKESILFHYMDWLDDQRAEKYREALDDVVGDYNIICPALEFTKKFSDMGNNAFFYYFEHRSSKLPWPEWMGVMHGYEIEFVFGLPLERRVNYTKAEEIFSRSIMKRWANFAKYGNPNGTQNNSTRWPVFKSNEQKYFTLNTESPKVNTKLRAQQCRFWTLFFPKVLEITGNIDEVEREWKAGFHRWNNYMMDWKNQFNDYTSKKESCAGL

The term IC50 denotes the concentration that gives 50% inhibition. `COc1ccc(-c2cc(CN3CCC(N4CCCC4=O)c4cc(Cl)cc(Cl)c43)on2)cc1OC` (stereo not shown) [6o, 5-((6′,8′-dichloro-4′-(2′’-oxopyrrolidin-1′’-yl)-3′,4′-dihydroquinolin-1′(2′H)-yl)methyl)-3-(3,4-dimethoxyphenyl)isoxazole]: the IC50 at BChE (from bovine serum) (setting [2]) was found to be 313.82 ± 0.01 µM; in assay [1] (read-out: AChE (IC50)), 80.89 ± 0.04 µM. In addition, the SI in assay [1] amounted to 3.88.

For the compound `COc1ccc2c(c1)C(N1CCCC1=O)CCN2CC1CC(c2ccccc2)=NO1` (stereo not shown) [5i, 5-[(6-methoxy-4-(2′-oxopyrrolidin-1′-yl)-3,4-dihydroquinolin-1(2H)-yl)-methyl]-3-phenyl-4,5-dihydroisoxazole], the results for the IC50 (at BChE (from bovine serum) (setting [3]); in assay [1] (read-out: IC50 AChE)) were 146.37 ± 0.03 µM and 82.04 ± 0.11 µM, respectively. The same compound came in with an SI in assay [1] of 1.79.

Consider `COc1ccc(C2=NOC(CN3CCC(N4CCCC4=O)c4cc(Cl)ccc43)C2)cc1OC` (stereo not shown) [5o, 3-(4,5-dimethoxyphenyl)-5-[(6-chloro-4-(2′-oxopyrrolidin-1′-yl)-3,4-dihydroquinolin-1(2H)-yl)-methyl]-4,5-dihydroisoxazole], for which the IC50 at BChE (from bovine serum) (setting [3]) is 83.65 ± 0.01 µM. Besides, in assay [1], the SI came out at 6.35 and the “selectivity for inhibiting AChE” value is “significant selectivity”. Further, in assay [1] (read-out: IC50 AChE), the IC50 is 13.17 ± 0.02 µM.

With `COc1cc(-c2cc(CN3CCC(N4CCCC4=O)c4cc(Cl)ccc43)on2)cc(OC)c1OC` (stereo not shown) [6p, 5-((6′-chloro-4′-(2′’-oxopyrrolidin-1′’-yl)-3′,4′-dihydroquinolin-1′(2′H)-yl)methyl)-3-(3,4,5-trimethoxyphenyl)isoxazole], the values for the 50% inhibitory concentration (IC50) (on BChE (from bovine serum) (setting [2]); in assay [1] (read-out: AChE (IC50))) were 46.84 ± 0.01 µM and 41.95 ± 0.11 µM, respectively. Besides, the SI in assay [1] came out at 1.11.

In the case of `Cc1ccc2c(c1)C(N1CCCC1=O)CCN2CC1CC(c2ccccc2)=NO1` (stereo not shown) [5e, 5-[(6-methyl-4-(2′-oxopyrrolidin-1′-yl)-3,4-dihydroquinolin-1(2H)-yl)-methyl]-3-phenyl-4,5-dihydroisoxazole], the IC50 on BChE (from bovine serum) (setting [3]) is 31.4 ± 0.01 µM; in assay [1] (read-out: IC50 AChE), 189.1 ± 0.01 µM. In assay [1], the SI came to 0.17.

Regarding `Cc1ccc2c(c1)C(N1CCCC1=O)CCN2Cc1cc(-c2ccccc2)no1` (stereo not shown) [6d, 5-((6′-methyl-4′-(2′’-oxopyrrolidin-1′’-yl)-3′,4′-dihydroquinolin-1′(2′H)-yl)methyl)-3-phenylisoxazole], the IC50 on BChE (from bovine serum) (setting [2]) came to 18.51 ± 0.01 µM; in assay [1] (read-out: AChE (IC50)) it was 37.84 ± 0.01 µM. Besides, the SI in assay [1] amounted to 0.49.

`COc1cc(-c2cc(CN3CCC(N4CCCC4=O)c4cc(Br)ccc43)on2)cc(OC)c1OC` (stereo not shown) [6ab, 5-((6′-bromo-4′-(2′’-oxopyrrolidin-1′’-yl)-3′,4′-dihydroquinolin-1′(2′H)-yl)methyl)-3-(3,4,5-trimethoxyphenyl)isoxazole]: the 50% inhibitory concentration (IC50) at BChE (from bovine serum) (setting [2]) stood at 54.09 ± 0.01 µM; in assay [1] (read-out: AChE (IC50)), 148.31 ± 0.004 µM. Further, the SI in assay [1] was 0.36.
